Laboratory results published in PMC3038857, “Using Nuclear Receptor Activity to Stratify Hepatocarcinogens” (PLoS ONE, 2011).
Like-named read-outs stand apart in the source and are kept apart here.

Experiments:
PXR (NR1I2) [1] = target: T1, PXR (NR1I2) (Homo sapiens, UniProt O75469); assay: ATG_PXR_TRANS: Factorial reporter gene assay (HepG2); assay type: cell-based; set-up: endogenous in cells; host or cells: HepG2
T1 sequence (O75469 1-434): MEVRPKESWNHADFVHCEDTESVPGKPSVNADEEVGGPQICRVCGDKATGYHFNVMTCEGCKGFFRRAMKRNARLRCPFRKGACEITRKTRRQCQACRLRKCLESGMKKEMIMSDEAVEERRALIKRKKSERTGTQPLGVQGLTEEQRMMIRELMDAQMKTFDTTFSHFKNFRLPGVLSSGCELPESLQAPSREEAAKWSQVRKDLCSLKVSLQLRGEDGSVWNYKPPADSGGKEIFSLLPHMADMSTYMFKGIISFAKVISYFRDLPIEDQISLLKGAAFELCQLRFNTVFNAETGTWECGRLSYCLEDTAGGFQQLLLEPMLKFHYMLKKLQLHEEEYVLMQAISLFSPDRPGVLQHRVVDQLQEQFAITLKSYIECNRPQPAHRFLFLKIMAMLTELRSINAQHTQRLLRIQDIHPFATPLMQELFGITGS
Procedure: (§1) A multiple reporter transcription unit (MRTU) library consisting of 48 transcription factor binding sites was transfected into the HepG2 human liver hepatoma cell line. In addition to the cis-acting reporter genes (CIS), a modification of the approach was used to generate a trans-system (TRANS) with a mammalian one-hybrid assay consisting of an additional 25 MRTU library reporting the activity of nuclear receptor super-family members. […] These assays were performed by Attagene Inc. (Morrisville NC) under contract to EPA.
(§2) In addition to the cis-acting reporter genes (CIS), a modification of the approach was used to generate a trans-system (TRANS) with a mammalian one-hybrid assay consisting of an additional 25 MRTU library reporting the activity of nuclear receptor super-family members. […] Chemicals were then tested in the CIS and TRANS assays at seven concentrations starting at the MTC and followed by three-fold serial dilutions. These assays were performed by Attagene Inc. (Morrisville NC) under contract to EPA. Detailed description of the methods, data and analysis methods for this dataset will be presented in a separate publication.

CYP3A4 = assay: CLZD_CYP3A4: Change in expression of CYP3A4 (primary human hepatocytes); assay type: cell-based; settings: 24 hr
Summary of the method: (§3)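 Five-point concentration series (0.004-40 µM) applied to primary human hepatocytes; 6/24/48 hr timepoints; transcript quantified by multiplexed nuclease protection.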

Mouse Liver [2] = settings: ref ToxRefDB, cited from earlier work
CYP2B6 = assay: CLZD_CYP2B6: Change in expression of CYP2B6 (primary human hepatocytes); assay type: cell-based; settings: 24 hr
Summary of the method: as §3

Rat Liver [3] = settings: ref ToxRefDB, cited from earlier work
Mouse Liver [4] = settings: ref ToxRefDB, cited from earlier work; remark: listed apart in the source
Rat Liver [5] = settings: ref ToxRefDB, cited from earlier work; remark: listed apart in the source
Mouse Liver [6] = settings: ref ToxRefDB, cited from earlier work; remark: listed apart in the source
Rat Liver [7] = settings: ref ToxRefDB, cited from earlier work; remark: listed apart in the source
[8] = target: T2, PPARG (peroxisome proliferator-activated receptor gamma) (Homo sapiens, UniProt P37231); assay: ATG_PPARg_TRANS: Factorial reporter gene assay (HepG2); assay type: cell-based
T2 construct: expressed in transfected cells; host or cells: HepG2
T2 sequence (P37231 1-505): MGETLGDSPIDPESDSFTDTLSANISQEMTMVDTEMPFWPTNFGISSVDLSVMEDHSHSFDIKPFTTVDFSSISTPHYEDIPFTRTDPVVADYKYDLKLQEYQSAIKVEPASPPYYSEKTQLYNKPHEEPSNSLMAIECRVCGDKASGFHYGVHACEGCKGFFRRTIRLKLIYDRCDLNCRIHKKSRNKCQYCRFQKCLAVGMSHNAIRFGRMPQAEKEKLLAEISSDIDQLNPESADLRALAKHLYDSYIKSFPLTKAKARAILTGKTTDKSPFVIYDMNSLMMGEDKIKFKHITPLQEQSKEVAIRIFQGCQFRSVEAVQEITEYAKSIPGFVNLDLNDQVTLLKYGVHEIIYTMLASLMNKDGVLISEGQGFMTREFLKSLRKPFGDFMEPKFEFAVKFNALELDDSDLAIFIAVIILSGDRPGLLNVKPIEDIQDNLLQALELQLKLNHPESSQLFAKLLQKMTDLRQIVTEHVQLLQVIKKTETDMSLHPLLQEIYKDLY
Procedure: as §1, §2

PXR (NR1I2) [9] = target: T1, PXR (NR1I2); assay: ATG_PXRE_CIS: Factorial reporter gene assay (HepG2); assay type: cell-based; set-up: endogenous in cells; host or cells: HepG2
Summary of the method: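 Seven concentrations per chemical, three-fold dilutions down from the MTC, were tested in HepG2 hepatoma cells. Those cells carried a multiple reporter transcription unit library, read either as cis transcription-factor-site reporters or as a trans mammalian one-hybrid panel for nuclear receptors.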

CYP1A2 = assay: CLZD_CYP1A2: Change in expression of CYP1A2 (primary human hepatocytes); assay type: cell-based; settings: 24 hr
Procedure: (§4) This is a collection of multiplexed gene expression assays focused on Phase I and II xenobiotic metabolizing enzymes and transporters. Human primary cell cultures were treated with chemicals at 5 concentrations (0.004-40 [drawing 42] M) for 6, 24 and 48 hr. Concentration- and time-response profiles of chemicals were measured by the expression of key nuclear receptor target genes, activities of CYP1A enzymes (EROD), and cell morphology. Fourteen gene targets were monitored by quantitative nuclease protection assay including: six representative cytochrome P-450 genes, four hepatic transporters, three Phase II conjugating enzymes, and one endogenous metabolism gene involved in cholesterol synthesis. The target genes associated with nuclear receptor pathways are as follows: [drawing 43] and [drawing 44] with [drawing 45]; [drawing 46] , [drawing 47] , [drawing 48] , [drawing 49] , [drawing 50] and [drawing 51] with [drawing 52]; [drawing 53] , [drawing 54] , [drawing 55] and [drawing 56] with [drawing 57]; [drawing 58] with [drawing 59]; and [drawing 60] with [drawing 61] . Assays were run in primary human hepatocyte cultures by CellzDirect Invitrogen Inc. (Durham, NC), in collaboration with EPA.
(§5) Multiplexed Gene Expression in Human Primary Hepatocytes: This is a collection of multiplexed gene expression assays focused on Phase I and II metabolic enzymes and transporters. […] Fourteen gene targets were monitored by quantitative nuclease protection assay: six representative cytochrome P450 genes, four hepatic transporters, three Phase II conjugating enzymes, and one endogenous metabolism gene involved in cholesterol synthesis. Cells were exposed at 5 concentrations (0.004-40 µM) for 6, 24 or 48 hr. Gene targets are sentinels for five nuclear receptor signaling pathways: AhR, CAR, PXR, FXR, and PPARα. All gene are associated with nuclear receptor pathways: CYP1A1 and CYP1A2 with AHR; ABCB1, ABCG2, CYP2B6, CYP2C9, CYP2C19 and UGT1A1 with CAR; CYP3A4, GSTA2, SLCO1B1 and SULT2A1 with PXR; HMGCS2 with PPARA; and ABCB11 with FXR. […] Detailed description of the methods, data and analysis methods for this dataset will be presented in a separate publication.

PXR Human (NR1I2) = target: T3, PXR Human (NR1I2) (Homo sapiens, UniProt O75469); assay: NCGC_PXR_Agonist_human: GAL4 BLAM Reporter gene assay: PXR Human; assay type: cell-based; settings: agonist mode
T3 sequence (O75469 146-434 limits assumed): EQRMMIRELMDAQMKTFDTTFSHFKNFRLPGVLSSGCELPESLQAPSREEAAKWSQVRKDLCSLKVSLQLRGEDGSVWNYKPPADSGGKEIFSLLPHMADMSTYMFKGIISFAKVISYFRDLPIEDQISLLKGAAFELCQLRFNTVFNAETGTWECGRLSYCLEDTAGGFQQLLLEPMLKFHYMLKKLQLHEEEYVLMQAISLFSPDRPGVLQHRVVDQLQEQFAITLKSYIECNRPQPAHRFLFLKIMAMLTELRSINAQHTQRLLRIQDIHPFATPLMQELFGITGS
Procedure: These assays measure binding constants and enzyme inhibition values for nuclear receptors. The targets include [drawing 67] , [drawing 68] , [drawing 69] , [drawing 70] , [drawing 71] , [drawing 72] , [drawing 73] , [drawing 74] , [drawing 75] and [drawing 76] . Each of the nuclear receptor targets was measured in agonist mode. Assays were run at the NIH Chemical Genomics Center (Rockville, MD).
Cell-based HTS Assays: These assays measuring binding constants and enzyme inhibition values for nuclear receptors. The targets include AR, ER, FXR, LXR, PPARα, PPARδ, PPARγ, RXRα, RXRβ and PXR. Each of the nuclear receptor targets was measured in both agonist and antagonist mode, but the antagonist data is still undergoing analysis due to possible interference between cytotoxicity and assay activity, so antagonist mode data were not used in the present analysis. Assays were run at the NIH Chemical Genomics Center (Rockville, MD) as part of the Tox21 collaboration. […] The R^2 was required to be ≥0.5. Values where only the highest concentration exceeded 50% activity were excluded to eliminate weak or false positives. Detailed description of the methods, data and analysis methods for this dataset will be presented in a separate publication.

CYP1A1 = assay: CLZD_CYP1A1: Change in expression of CYP1A1 (primary human hepatocytes); assay type: cell-based; settings: 24 hr
Procedure: as §4, §5

PXR (NR1I2) [10] = target: T1, PXR (NR1I2); assay: NVS_NR_hPXR: Human PXR Fluormone PXR (SXR) green (cell-free HTS); assay type: binding
Text: These are a collection of biochemical assays measuring binding constants and enzyme inhibition values. Chemicals were initially screened at a single concentration in duplicate wells at a concentration of 10 [drawing 63] M for cytochrome P-450 assays and 25 [drawing 64] M for all others. […] These assays were run by Caliper Life Sciences (Hanover, MD) under contract to EPA. Short assay descriptions are available at: http://www.caliperls.com/products/contract-research/in-vitro/.
Cell-free HTS Assays: A collection of biochemical assays measuring binding constants and enzyme inhibition values. […] These assays were run by Caliper Life Sciences (Hanover, MD) under contract to EPA. Short assay descriptions are available at http://www.caliperls.com/products/contract-research/in-vitro/. Values for all endpoints were imported into GeneData Screener (Basel, Switzerland) and normalised to solvent controls from the same plate as the tested compounds and expressed as percent of neutral control. Concentration-response curves were fit in GeneData Screener (Basel, Switzerland) Condeseo module using the Hill equation and AC50 values were determined. […] Detailed description of the methods, data and analysis methods for this dataset are described in a separate publication.

CCCCOCCOCCOCc1cc2c(cc1CCC)OCO2 [r246]
ATG_PXR_TRANS (PXR (NR1I2) [1]; HepG2): 4.824
CLZD_CYP3A4_24 (CYP3A4): 5.527
CHR_Mouse_Liver_3_NeoplasticLesion (Mouse Liver [2]; mouse, chronic study): 6
CLZD_CYP2B6_24 (CYP2B6): 5.592
CHR_Rat_Liver_2_PreneoplasticLesion (Rat Liver [3]; rat, chronic study): 6
CHR_Mouse_Liver_1_AnyLesion (Mouse Liver [4]; mouse, chronic study): 6
CHR_Rat_Liver_3_NeoplasticLesion (Rat Liver [5]; rat, chronic study): 0
CHR_Mouse_Liver_2_PreneoplasticLesion (Mouse Liver [6]; mouse, chronic study): 6
CHR_Rat_Liver_1_AnyLesion (Rat Liver [7]; rat, chronic study): 6
ATG_PPARg_TRANS ([8]; HepG2): 4.602
ATG_PXRE_CIS (PXR (NR1I2) [9]; HepG2): 5.42
CLZD_CYP1A2_24 (CYP1A2): 5.617

CCOC(=O)COc1cc(-c2nn(C)c(OC(F)F)c2Cl)c(F)cc1Cl [r271]
ATG_PXR_TRANS (PXR (NR1I2) [1]; HepG2 reporter): 4.538
CLZD_CYP3A4_24 (CYP3A4): 5.138
CHR_Mouse_Liver_3_NeoplasticLesion (Mouse Liver [2]; chronic study, mouse liver): 6
CLZD_CYP2B6_24 (CYP2B6): 4.918
CHR_Rat_Liver_2_PreneoplasticLesion (Rat Liver [3]; chronic study, rat liver): 6
CHR_Mouse_Liver_1_AnyLesion (Mouse Liver [4]; chronic study, mouse liver): 6
NCGC_PXR_Agonist_human (PXR Human (NR1I2)): 4.477
CHR_Rat_Liver_3_NeoplasticLesion (Rat Liver [5]; chronic study, rat liver): 0
CHR_Mouse_Liver_2_PreneoplasticLesion (Mouse Liver [6]; chronic study, mouse liver): 6
CHR_Rat_Liver_1_AnyLesion (Rat Liver [7]; chronic study, rat liver): 6
ATG_PPARg_TRANS ([8]; HepG2 reporter): 4.328
ATG_PXRE_CIS (PXR (NR1I2) [9]; HepG2 reporter): 4.26

CNc1cnn(-c2cccc(C(F)(F)F)c2)c(=O)c1Cl [row 222]
CLZD_CYP3A4_24 (CYP3A4): 5.266
CHR_Mouse_Liver_3_NeoplasticLesion (Mouse Liver [2]; chronic mouse study, liver): 6
CLZD_CYP2B6_24 (CYP2B6): 4.975
CHR_Mouse_Liver_1_AnyLesion (Mouse Liver [4]; chronic mouse study, liver): 6
CHR_Mouse_Liver_2_PreneoplasticLesion (Mouse Liver [6]; chronic mouse study, liver): 6
CLZD_CYP1A1_24 (CYP1A1): 5.028
ATG_PXRE_CIS (PXR (NR1I2) [9]; HepG2): 4.62
CLZD_CYP1A2_24 (CYP1A2): 4.939

CCCN(CCC)c1c([N+](=O)[O-])cc(S(N)(=O)=O)cc1[N+](=O)[O-] [row 224]
ATG_PXR_TRANS (PXR (NR1I2) [1]; HepG2): 5.538
CLZD_CYP3A4_24 (CYP3A4): 4.897
NVS_NR_hPXR (PXR (NR1I2) [10]): 5.395
CLZD_CYP2B6_24 (CYP2B6): 4.989
CHR_Rat_Liver_2_PreneoplasticLesion (Rat Liver [3]; chronic rat study, liver): 0
NCGC_PXR_Agonist_human (PXR Human (NR1I2)): 5.133
CHR_Rat_Liver_3_NeoplasticLesion (Rat Liver [5]; chronic rat study, liver): 0
CHR_Rat_Liver_1_AnyLesion (Rat Liver [7]; chronic rat study, liver): 0
ATG_PXRE_CIS (PXR (NR1I2) [9]; HepG2): 5.921
